Data reported in PubChem BioAssay AID1963844 (Molecular Pharmacology Branch, DTP, NCI, 2024).

Test system: 422866-222-R5-J1-PDC complex spheroid viability
Assay: Anticancer human tumor 422866-222-R5-J1-PDC patient-derived pancreatic adenocarcinoma cell line growth inhibition [POLQ]
Conditions: for IC50: curve of first compound; for viability, T/C: stronger effect = lower value
Method in brief: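 PDC + HUVEC + MSC complex spheroids; POLQ inhibitors ± partner drugs; top conc. at/near clinical Cmax, else 10 microM (SN-38 1 microM), half-log dilutions; 37 degrees C, 5% CO2.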

[1] = second compound 0.0316 µM, first compound 0.000316 µM
[2] = second compound 0.0316 µM, first compound 0.001 µM
[3] = second compound 0.0316 µM, first compound 0.00316 µM
[4] = second compound 0.0316 µM, first compound 0.01 µM
[5] = second compound 0.0316 µM, first compound 0.0316 µM
[6] = second compound 0.0316 µM, first compound 0.1 µM
[7] = second compound 0.1 µM, first compound 0.000316 µM
[8] = second compound 0.1 µM, first compound 0.001 µM
[9] = second compound 0.1 µM, first compound 0.00316 µM
[10] = second compound 0.1 µM, first compound 0.01 µM
[11] = second compound 0.1 µM, first compound 0.0316 µM
[12] = second compound 0.1 µM, first compound 0.1 µM
[13] = second compound 0.316 µM, first compound 0.000316 µM
[14] = second compound 0.316 µM, first compound 0.001 µM
[15] = second compound 0.316 µM, first compound 0.00316 µM
[16] = second compound 0.316 µM, first compound 0.01 µM
[17] = second compound 0.316 µM, first compound 0.0316 µM
[18] = second compound 0.316 µM, first compound 0.1 µM
[19] = second compound 1 µM, first compound 0.000316 µM
[20] = second compound 1 µM, first compound 0.001 µM
[21] = second compound 1 µM, first compound 0.00316 µM
[22] = second compound 1 µM, first compound 0.01 µM
[23] = second compound 1 µM, first compound 0.0316 µM
[24] = second compound 1 µM, first compound 0.1 µM
[25] = second compound 3.16 µM, first compound 0.000316 µM
[26] = second compound 3.16 µM, first compound 0.001 µM
[27] = second compound 3.16 µM, first compound 0.00316 µM
[28] = second compound 3.16 µM, first compound 0.01 µM
[29] = second compound 3.16 µM, first compound 0.0316 µM
[30] = second compound 3.16 µM, first compound 0.1 µM
[31] = second compound 10 µM, first compound 0.000316 µM
[32] = second compound 10 µM, first compound 0.001 µM
[33] = second compound 10 µM, first compound 0.00316 µM
[34] = second compound 10 µM, first compound 0.01 µM
[35] = second compound 10 µM, first compound 0.0316 µM
[36] = second compound 10 µM, first compound 0.1 µM
[37] = second compound 0.0316 µM, first compound 0.316 µM
[38] = second compound 0.0316 µM, first compound 1 µM
[39] = second compound 0.0316 µM, first compound 3.16 µM
[40] = second compound 0.0316 µM, first compound 10 µM
[41] = second compound 0.1 µM, first compound 0.316 µM
[42] = second compound 0.1 µM, first compound 1 µM
[43] = second compound 0.1 µM, first compound 3.16 µM
[44] = second compound 0.1 µM, first compound 10 µM
[45] = second compound 0.316 µM, first compound 0.316 µM
[46] = second compound 0.316 µM, first compound 1 µM
[47] = second compound 0.316 µM, first compound 3.16 µM
[48] = second compound 0.316 µM, first compound 10 µM
[49] = second compound 1 µM, first compound 0.316 µM
[50] = second compound 1 µM, first compound 1 µM
[51] = second compound 1 µM, first compound 3.16 µM
[52] = second compound 1 µM, first compound 10 µM
[53] = second compound 3.16 µM, first compound 0.316 µM
[54] = second compound 3.16 µM, first compound 1 µM
[55] = second compound 3.16 µM, first compound 3.16 µM
[56] = second compound 3.16 µM, first compound 10 µM
[57] = second compound 10 µM, first compound 0.316 µM
[58] = second compound 10 µM, first compound 1 µM
[59] = second compound 10 µM, first compound 3.16 µM
[60] = second compound 10 µM, first compound 10 µM
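Note: spheroids exposed to compounds for one week before readout.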
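Throughout, for viability, T/C: percent of DMSO vehicle wells luminescence so 100% = untreated viability.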

`CC[C@@]1(O)C(=O)OCc2c1cc1n(c2=O)Cc2cc3c(CN(C)C)c(O)ccc3nc2-1` + COC1C(OC(N)=O)C(O)C(Oc2ccc3c(O)c(NC(=O)c4ccc(O)c(CC=C(C)C)c4)c(=O)oc3c2C)OC1(C)C was tested, and the IC50 (second compound 0.0316 µM) was 0.0229 µM, the IC50 (second compound 0.1 µM) was 0.0216 µM and the IC50 (second compound 0.316 µM) was 0.0233 µM. For the same molecule, the IC50 (second compound 1 µM) was 0.0207 µM, the IC50 (second compound 3.16 µM) was 0.026 µM and the IC50 (second compound 10 µM) was 0.0224 µM. It also gave a viability, T/C [1] of 105%, a viability, T/C [2] of 92.5% and a viability, T/C [3] of 96.7%. It also gave a viability, T/C [4] of 77%, a viability, T/C [5] of 39.2% and a viability, T/C [6] of 32.7%. For the same molecule, the viability, T/C [7] was 92.1%, the viability, T/C [8] was 96.3% and the viability, T/C [9] was 99.4%. It also gave a viability, T/C [10] of 77.8%, a viability, T/C [11] of 32.3% and a viability, T/C [12] of 40.1%. It also gave a viability, T/C [13] of 113%, a viability, T/C [14] of 97.9% and a viability, T/C [15] of 85.4%. The viability, T/C [16] was 69.1%, the viability, T/C [17] was 37.3% and the viability, T/C [18] was 39.4%. The viability, T/C [19] was 106%, the viability, T/C [20] was 92.3% and the viability, T/C [21] was 92%. It also gave a viability, T/C [22] of 61.8%, a viability, T/C [23] of 43.1% and a viability, T/C [24] of 35.6%. For the same molecule, the viability, T/C [25] was 96.4%, the viability, T/C [26] was 105% and the viability, T/C [27] was 90.9%. It also gave a viability, T/C [28] of 71.5%, a viability, T/C [29] of 45.3% and a viability, T/C [30] of 37.8%. It also gave a viability, T/C [31] of 93.8%, a viability, T/C [32] of 95.2% and a viability, T/C [33] of 83.2%. It also gave a viability, T/C [34] of 71.6%, a viability, T/C [35] of 39.8% and a viability, T/C [36] of 30.8%.
Work on `COc1cc(C2c3cc4c(cc3C(OC3OC5COC(C)OC5C(O)C3O)C3COC(=O)C23)OCO4)cc(OC)c1O` (stereo not drawn) + Cc1cccc(N(C)C(=O)C2C(O)CCN2c2nc(C)cc(C(F)(F)F)c2C#N)c1 yielded an IC50 (second compound 0.0316 µM) of 1.23 µM, an IC50 (second compound 0.1 µM) of 1.65 µM and an IC50 (second compound 0.316 µM) of 1.36 µM. It also gave an IC50 (second compound 1 µM) of 0.735 µM, an IC50 (second compound 3.16 µM) of 0.714 µM and an IC50 (second compound 10 µM) of 0.876 µM. The viability, T/C [5] was 96.8%, the viability, T/C [6] was 84.3% and the viability, T/C [37] was 69%. It also gave a viability, T/C [38] of 53.5%, a viability, T/C [39] of 37.9% and a viability, T/C [40] of 33.2%. For the same molecule, the viability, T/C [11] was 101%, the viability, T/C [12] was 92.9% and the viability, T/C [41] was 63.3%. It also gave a viability, T/C [42] of 58.6%, a viability, T/C [43] of 44.2% and a viability, T/C [44] of 31.8%. The viability, T/C [17] was 110%, the viability, T/C [18] was 92.7% and the viability, T/C [45] was 68.8%. The viability, T/C [46] was 50.6%, the viability, T/C [47] was 47.7% and the viability, T/C [48] was 35.8%. The viability, T/C [23] was 105%, the viability, T/C [24] was 94.7% and the viability, T/C [49] was 61.8%. For the same molecule, the viability, T/C [50] was 46.5%, the viability, T/C [51] was 38.5% and the viability, T/C [52] was 29.7%. It also gave a viability, T/C [29] of 103%, a viability, T/C [30] of 88.8% and a viability, T/C [53] of 56.6%. The viability, T/C [54] was 49.6%, the viability, T/C [55] was 40.1% and the viability, T/C [56] was 33.7%. It also gave a viability, T/C [35] of 91.5%, a viability, T/C [36] of 77.1% and a viability, T/C [57] of 56%. For the same molecule, the viability, T/C [58] was 49.9%, the viability, T/C [59] was 45.1% and the viability, T/C [60] was 37%.
Work on `CC[C@@]1(O)C(=O)OCc2c1cc1n(c2=O)Cc2cc3c(CN(C)C)c(O)ccc3nc2-1` + Cc1cccc(N(C)C(=O)C2C(O)CCN2c2nc(C)cc(C(F)(F)F)c2C#N)c1 yielded an IC50 (second compound 0.0316 µM) of 0.0307 µM, an IC50 (second compound 0.1 µM) of 0.0241 µM and an IC50 (second compound 0.316 µM) of 0.0312 µM. The IC50 (second compound 1 µM) was 0.047 µM, the IC50 (second compound 3.16 µM) was 0.0259 µM and the IC50 (second compound 10 µM) was 0.0313 µM. It also gave a viability, T/C [1] of 104%, a viability, T/C [2] of 101% and a viability, T/C [3] of 85.7%. It also gave a viability, T/C [4] of 75.7%, a viability, T/C [5] of 42.5% and a viability, T/C [6] of 45.5%. For the same molecule, the viability, T/C [7] was 105%, the viability, T/C [8] was 104% and the viability, T/C [9] was 97%. It also gave a viability, T/C [10] of 62.6%, a viability, T/C [11] of 46.2% and a viability, T/C [12] of 44.4%. The viability, T/C [13] was 114%, the viability, T/C [14] was 105% and the viability, T/C [15] was 98.2%. For the same molecule, the viability, T/C [16] was 87.5%, the viability, T/C [17] was 47.6% and the viability, T/C [18] was 46.3%. The viability, T/C [19] was 114%, the viability, T/C [20] was 111% and the viability, T/C [21] was 91%. The viability, T/C [22] was 77.5%, the viability, T/C [23] was 53.5% and the viability, T/C [24] was 41.1%. It also gave a viability, T/C [25] of 96.2%, a viability, T/C [26] of 108% and a viability, T/C [27] of 98.9%. It also gave a viability, T/C [28] of 80.3%, a viability, T/C [29] of 40.8% and a viability, T/C [30] of 46.6%. It also gave a viability, T/C [31] of 82%, a viability, T/C [32] of 106% and a viability, T/C [33] of 102%. It also gave a viability, T/C [34] of 77%, a viability, T/C [35] of 50.7% and a viability, T/C [36] of 48.8%.
`O=C(c1cc(Cc2n[nH]c(=O)c3ccccc23)ccc1F)N1CCN(C(=O)C2CC2)CC1` + Nc1ccc(C#CCN(C(=O)Cc2ncc(C(F)(F)F)cc2C(F)(F)F)c2ccc(F)cc2)nn1 gave an IC50 (second compound 0.0316 µM) greater than 10 µM, an IC50 (second compound 0.1 µM) greater than 10 µM and an IC50 (second compound 0.316 µM) greater than 10 µM. It also gave an IC50 (second compound 1 µM) greater than 10 µM, an IC50 (second compound 3.16 µM) greater than 10 µM and an IC50 (second compound 10 µM) greater than 10 µM. It also gave a viability, T/C [5] of 86.6%, a viability, T/C [6] of 109% and a viability, T/C [37] of 88.2%. It also gave a viability, T/C [38] of 97.9%, a viability, T/C [39] of 72.8% and a viability, T/C [40] of 73.6%. It also gave a viability, T/C [11] of 91.7%, a viability, T/C [12] of 95.8% and a viability, T/C [41] of 97.5%. It also gave a viability, T/C [42] of 93.8%, a viability, T/C [43] of 80.2% and a viability, T/C [44] of 61.4%. For the same molecule, the viability, T/C [17] was 101%, the viability, T/C [18] was 103% and the viability, T/C [45] was 99.1%. For the same molecule, the viability, T/C [46] was 102%, the viability, T/C [47] was 76.2% and the viability, T/C [48] was 65.8%. The viability, T/C [23] was 105%, the viability, T/C [24] was 90.1% and the viability, T/C [49] was 105%. It also gave a viability, T/C [50] of 84.5%, a viability, T/C [51] of 70.2% and a viability, T/C [52] of 53.7%. The viability, T/C [29] was 112%, the viability, T/C [30] was 109% and the viability, T/C [53] was 111%. For the same molecule, the viability, T/C [54] was 90.3%, the viability, T/C [55] was 84.2% and the viability, T/C [56] was 65.9%. For the same molecule, the viability, T/C [35] was 96.8%, the viability, T/C [36] was 104% and the viability, T/C [57] was 131%. For the same molecule, the viability, T/C [58] was 115%, the viability, T/C [59] was 91.9% and the viability, T/C [60] was 68.6%.
